Test results published in patent publication US8354423B2, “Insecticidal spironindane derivatives” (priority 2003, dated 2013).

melting point: 225 °C
SMILES: O=C(N/N=C1\CC2(CCN(C/C=C/c3ccc(Cl)cc3)CC2)c2ccccc21)Nc1ccc(OC(F)(F)F)cc1
